# Laboratory results: patent US20240277740A1, “TREATMENT OF KNOWN AND UNKNOWN VIRAL INFECTION WITH LIPID AGENTS” (Viratides, LLC, priority 2020, published 2024)
# Where “and” joins values, the source holds several entries; their conditions need not be identical. Identical values can stand only once. Like-named read-outs stand apart in the source and are kept apart here.
# Tests used:
# [1] = test system: SARS-CoV-2 (MEX-BC2/2020); test: Live SARS-CoV-2 CPE-based antiviral assay in Vero E6 cells (neutral red); type: cell-based
# uninfected Vero E6 cells = conditions: for Viability of Uninfected Vero E6 Cells: 4-day treatment, mean ± s.d. of duplicates; for Viability of Uninfected Vero E6 Cells (A540): 4 days, raw duplicates
smiles,measurement,setting,value
"N#C[C@@]1(c2ccc3c(N)ncnn23)O[C@H](CO)[C@@H](O)[C@H]1O [GS-441524, reference compound]",Inhibition of SARS-CoV-2 (MEX-BC2/2020) Virus-Induced CPE,"[1]; 0.03 μM, single data point",0.09 % mock
same,Inhibition of SARS-CoV-2 (MEX-BC2/2020) Virus-Induced CPE,"[1]; 0.08 μM, single data point",1.1 % mock
same,Inhibition of SARS-CoV-2 (MEX-BC2/2020) Virus-Induced CPE,"[1]; 0.25 μM, single data point",16.1 % mock
same,"Raw OD - Absorbance (540 nm), infected cells","[1]; 0.25 μM, single data point",0.194
same,Inhibition of SARS-CoV-2 (MEX-BC2/2020) Virus-Induced CPE,"[1]; 0.74 μM, single data point",134.9 % mock
same,"Raw OD - Absorbance (540 nm), infected cells","[1]; 0.74 μM, single data point",0.648
same,Inhibition of SARS-CoV-2 (MEX-BC2/2020) Virus-Induced CPE,[1]; 1 μM,110.2 % mock
same,"Raw OD - Absorbance (540 nm), infected cells",[1]; 1 μM,0.554 and 0.553
same,Inhibition of SARS-CoV-2 (MEX-BC2/2020) Virus-Induced CPE,"[1]; 6.7 μM, single data point",116.6 % mock
same,"Raw OD - Absorbance (540 nm), infected cells","[1]; 6.7 μM, single data point",0.578
same,Inhibition of SARS-CoV-2 (MEX-BC2/2020) Virus-Induced CPE,[1]; 10 μM,100.0 % mock
same,"Raw OD - Absorbance (540 nm), infected cells",[1]; 10 μM,0.507 and 0.522
same,IC50,"[1]; Severe acute respiratory syndrome coronavirus 2, Vero C1008, Vero E6, 96 h, estimated by GraphPad Prism, R2 = 0.977",~280 nM
same,concentrations at which virus-induced CPE was completely prevented,[1]; Vero E6,≥ 0.74 µM
same,prevention of virus-induced CPE by control inhibitor (in words),[1]; quality control of infectivity assay,prevented completely the virus-induced CPE
"CCCCCCCC/C=C\CCCCCCCCCCCCCC(=O)N[C@@H](CO[C@@H]1O[C@H](CO)[C@H](O)[C@H](OS(=O)(=O)O)[C@H]1O)[C@H](O)/C=C/CCCCCCCCCCCCC [Sulfatide 24:1, C24:1 3′-sulfo Galactosylceramide (d18:1/24:1(15Z))]",Inhibition of SARS-CoV-2 (MEX-BC2/2020) Virus-Induced CPE,"[1]; 0.78 μg/mL, average ± s.d. of duplicates",−3.4 ± 0.6 % mock
same,"Raw OD - Absorbance (540 nm), infected cells","[1]; 0.78 μg/mL, duplicates",0.121 and 0.118
same,Inhibition of SARS-CoV-2 (MEX-BC2/2020) Virus-Induced CPE,"[1]; 1.6 μg/mL, average ± s.d. of duplicates",−1.7 ± 4.1 % mock
same,"Raw OD - Absorbance (540 nm), infected cells","[1]; 1.6 μg/mL, duplicates",0.137 and 0.115
same,Inhibition of SARS-CoV-2 (MEX-BC2/2020) Virus-Induced CPE,"[1]; 3.1 μg/mL, average ± s.d. of duplicates",−3.6 ± 1.1 % mock
same,"Raw OD - Absorbance (540 nm), infected cells","[1]; 3.1 μg/mL, duplicates",0.122 and 0.116
same,Inhibition of SARS-CoV-2 (MEX-BC2/2020) Virus-Induced CPE,"[1]; 6.25 μg/mL, average ± s.d. of duplicates",−3.8 ± 1.1 % mock
same,"Raw OD - Absorbance (540 nm), infected cells","[1]; 6.25 μg/mL, duplicates",0.115 and 0.121
same,Inhibition of SARS-CoV-2 (MEX-BC2/2020) Virus-Induced CPE,"[1]; 12.5 μg/mL, average ± s.d. of duplicates",1.3 ± 3.9 % mock
same,"Raw OD - Absorbance (540 nm), infected cells","[1]; 12.5 μg/mL, duplicates",0.127 and 0.18
same,Inhibition of SARS-CoV-2 (MEX-BC2/2020) Virus-Induced CPE,"[1]; 25 μg/mL, average ± s.d. of duplicates",1.9 ± 2.2 % mock
same,"Raw OD - Absorbance (540 nm), infected cells","[1]; 25 μg/mL, duplicates",0.134 and 0.146
same,Inhibition of SARS-CoV-2 (MEX-BC2/2020) Virus-Induced CPE,"[1]; 50 μg/mL, average ± s.d. of duplicates",21.6 ± 13.0 % mock
same,"Raw OD - Absorbance (540 nm), infected cells","[1]; 50 μg/mL, duplicates",0.180 and 0.250
same,Inhibition of SARS-CoV-2 (MEX-BC2/2020) Virus-Induced CPE,"[1]; 100 μg/mL, average ± s.d. of duplicates",61.3 ± 8.5 % mock
same,"Raw OD - Absorbance (540 nm), infected cells","[1]; 100 μg/mL, duplicates",0.390 and 0.344
same,IC50 (antiviral),"[1]; Vero E6, 96 h, neutral red",84.9 µg/mL
same,prevention of virus-induced CPE (in words),"[1]; at the two highest concentrations tested, 50 μg/mL and 100 μg/mL",prevented the virus-induced cytopathic effect (CPE) in a dose-dependent manner
same,CC50,uninfected Vero E6 cells,>100 µg/mL
same,cytotoxicity in viability assay (in words),uninfected Vero E6 cells,dose-dependent trend of cytotoxicity
same,Viability of Uninfected Vero E6 Cells,uninfected Vero E6 cells; 0.78 μg/mL,89.8 ± 5.8 % vehicle
same,Viability of Uninfected Vero E6 Cells (A540),uninfected Vero E6 cells; 0.78 μg/mL,0.457 and 0.424
same,Viability of Uninfected Vero E6 Cells,uninfected Vero E6 cells; 1.6 μg/mL,99.3 ± 1.4 % vehicle
same,Viability of Uninfected Vero E6 Cells (A540),uninfected Vero E6 cells; 1.6 μg/mL,0.495 and 0.487
same,Viability of Uninfected Vero E6 Cells,uninfected Vero E6 cells; 3.1 μg/mL,97.3 ± 1.4 % vehicle
same,Viability of Uninfected Vero E6 Cells (A540),uninfected Vero E6 cells; 3.1 μg/mL,0.487 and 0.479
same,Viability of Uninfected Vero E6 Cells,uninfected Vero E6 cells; 6.25 μg/mL,95.7 ± 2.3 % vehicle
same,Viability of Uninfected Vero E6 Cells (A540),uninfected Vero E6 cells; 6.25 μg/mL,0.483 and 0.470
same,Viability of Uninfected Vero E6 Cells,uninfected Vero E6 cells; 12.5 μg/mL,95.6 ± 3.5 % vehicle
same,Viability of Uninfected Vero E6 Cells (A540),uninfected Vero E6 cells; 12.5 μg/mL,0.486 and 0.466
same,Viability of Uninfected Vero E6 Cells,uninfected Vero E6 cells; 25 μg/mL,85.8 ± 11.0 % vehicle
same,Viability of Uninfected Vero E6 Cells (A540),uninfected Vero E6 cells; 25 μg/mL,0.468 and 0.405
same,Viability of Uninfected Vero E6 Cells,uninfected Vero E6 cells; 50 μg/mL,73.7 ± 13.1 % vehicle
same,Viability of Uninfected Vero E6 Cells (A540),uninfected Vero E6 cells; 50 μg/mL,0.425 and 0.350
same,Viability of Uninfected Vero E6 Cells,uninfected Vero E6 cells; 100 μg/mL,63.8 ± 7.9 % vehicle
same,Viability of Uninfected Vero E6 Cells (A540),uninfected Vero E6 cells; 100 μg/mL,0.370 and 0.325
"C[S+](C)[O-] [DMSO, reference compound]",block of cell viability,uninfected Vero E6 cells; tested at 10%,more than 95%
